Data from patent US20220153766A1, “CONDENSED TRICYCLIC COMPOUND USED AS KINASE INHIBITOR” (Hangzhou Innogate Pharma Co., Ltd., priority 2019, published 2022).

Key:
EGFR (T790M/L858R/C797S) = EGFR (T790M/L858R/C797S) (Homo sapiens, UniProt P00533, C797S/L858R/T790M); assay: EGFR (T790M/L858R/C797S) kinase activity inhibition, Caliper mobility shift assay; assay type: biochemical; settings: kinase 2.5 nM, ATP 40 μM
Method: The basic method is the same as ALK activity test method 2. The test concentration of the compound starts at 2 μM, and is diluted 5 folds into 6 (7 for individual compounds) concentration points. […] Add 30 μL of stop solution containing EDTA to stop the kinase reaction. Use Caliper EZ Reader to read the conversion rate. Inhibition rate %=(Average positive control conversion rate %−Sample conversion rate %/(Average positive control conversion rate %−Average negative control conversion rate %). Among them: negative control wells represent the conversion rate readings without enzyme activity; positive control wells represent the conversion rate readings of wells without compound inhibition. Take the log value of the concentration as the X-axis, and the percentage inhibition rate on the Y-axis. Log (inhibitor) vs. response—Variable slope of analysis software GraphPad Prism 5 was used to fit the curve to obtain the IC50 value of each compound on the enzyme activity. Calculation formula: Y=Bottom+(Top−Bottom)/(1+10^((Log IC50−X)*HillSlope)).

MAP4K1 (HPK1) = MAP4K1 (HPK1) (Homo sapiens, UniProt Q92918); assay: MAP4K1 (HPK1) kinase activity inhibition, Caliper mobility shift assay; assay type: biochemical; settings: kinase 1.25 nM, ATP 10.1 μM
Method: 4. MAP4K1 (HPK1) Kinase Activity Inhibition Experiment: Caliper mobility shift assay was used to detect the inhibitory effect of the compound on MAP4K1 (HPK1) kinase activity. The test concentration of the compound starts at 500 nM, and is diluted 5 folds into 5 concentration points. Use a dispenser Echo 550 to transfer 250 nL 100-fold final concentration of the compound to the target plate 3573, add 10 μL of MAP4K1 (HPK1) kinase solution with a final concentration of 1.25 nM, and incubate for 10 minutes at room temperature (the negative control well contains 10 μL kinase buffer and 250 nL 100% DMSO; the positive control well contains 10 μL kinase solution and 250 nL 100% DMSO). On the kinase MAP4K1 (HPK1), add 15 μL of ATP with a final concentration of 10.1 μM and 3 μM substrate peptide No. 25 mixed solution to react for 120 minutes. Add 30 μL of stop solution containing EDTA to stop the kinase reaction. Use Caliper EZ Reader to read the conversion rate. Inhibition rate %=(Average positive control conversion rate %−Sample conversion rate %/(Average positive control conversion rate %−Average negative control conversion rate %). Among them: negative control wells represent the conversion rate readings without enzyme activity; positive control wells represent the conversion rate readings of wells without compound inhibition. Take the log value of the concentration as the X-axis, and the percentage inhibition rate on the Y-axis. Log (inhibitor) vs. response—Variable slope of analysis software GraphPad Prism 5 was used to fit the curve to obtain the IC50 value of each compound on the enzyme activity. Calculation formula: Y=Bottom+(Top−Bottom)/(1+10 ^((Log IC50−X)*HillSlope)).

[1] = molecular target: T1, Ba/F3_EGFR del19/T790M/C797S cells (Homo sapiens, UniProt P00533, T790M/C797S, cells depend on it, form not given); assay: Ba/F3_EGFR (del19-T790M-C797S) cell proliferation inhibition, CTG, method 2; assay type: cell-based; settings: 2000 cells/well, 72 h, read-out: Ba/F3_EGFR (del19-T790M-C797S) cell proliferation inhibition (IC50 value) Method 2
Method: Take a small amount of cells and count them with ViCell. 2) Adjust the cell density, inoculate the cells in a 384-well plate at 2000/well, and incubate in a 37° C., 5% CO2 incubator for 4 hours. 3) Set up the program of Tecan HP D300, add the compound to the well plate. The maximum initial concentration of the compound is 1-4 μM, 3 folds dilution, 9 concentrations, and the DMSO content in each well is unified to 0.2%.
CTG method detection: 1) Take out the CTG reagent and cell plate and equilibrate at room temperature for 30 min, add 25 μL CTG to each well, shake at medium speed for 2 min, centrifuge at 1000 rpm for 1 minutes, and stand still at room temperature for 10 minutes. 2) Envision instrument reads the chemiluminescence signal value.
Data analysis: IC50 results are analyzed by IDBS's XL-fit 5.0 software.

EGFR (C797S) = EGFR (C797S) (Homo sapiens, UniProt P00533, C797S); assay: EGFR (C797S) kinase activity inhibition, Lantha screen Assay; assay type: biochemical; settings: kinase 10 nM, ATP 0.1 μM
Method: 1. EGFR (C797S) Kinase Activity Inhibition Experiment: The Lantha screen Assay method was used to test the inhibitory activity of the compounds at a kinase EGFR (C797S) concentration of 10 nM and an ATP concentration of 0.1 μM. The control samples were Staurosporine. Experimental Steps: […] 2) Control sample Staurosporine and test samples preparation: Staurosporine and the compounds of the embodiment of the present invention are formulated into a gradient concentration solution in 100% DMSO, and diluted to 10% DMSO with the above-mentioned buffer, and added to a 384-well plate. For example, if the initial concentration of the compound is 10 μM, 100% DMSO is used to prepare a 1000 μM solution, and 10 concentration gradients are diluted, and 100 nL solution is transferred to a 384-well plate with Echo*LIQUID HANDLE RS (LABCYTE, USA). […] Transfer 5 μL to the 384-well plate and incubate with the compound for 10-15 minutes. […] Transfer 5 μL to the 384-well plate to initiate the reaction, and incubate at room temperature for 30 minutes. [table] 5) Use TR-Fret dilution buffer to prepare 2-fold detection solution. The final concentration of Antibody is 2 nM and the final concentration of EDTA is 10 mM. Transfer 10 μL of detection solution to the reaction wells of the 384-well plate, shake and mix, and incubate at room temperature for 60 min. 6) Read the ratio of excitation at 340 nm and emission at 520 nm to 495 nm on Envision, and calculate the inhibition rate. 7) Fit IC50 with XL-fit software.

ALK = ALK (Homo sapiens, UniProt Q9UM73); assay: ALK kinase activity inhibition, Caliper mobility shift assay, method 1; assay type: biochemical
Method: 2. ALK Kinase Activity Inhibition Experiment: Method 1: In vitro enzymatic activity of ALK was measured using Caliper mobility shift assay. […] Add 10 μL of 2.5-fold enzyme solution and incubate at room temperature for 10 minutes, then add 10 μL of 2.5-fold substrates (Peptide FAM-P22 and ATP) solution. […] Read conversion rate data on Caliper EZ Reader II (Caliper Life Sciences). Convert the conversion rate into inhibition rate (% inhibition=(max−conversion rate)/(max−min)*100). Max refers to the conversion rate of the DMSO control, and min refers to the conversion rate without enzyme activity. With the compound concentration and inhibition rate on the abscissa and ordinate, draw the curve, use XLFit excel add-in version 5.4.0.8 software to fit the curve and calculate the IC50.

[2] = molecular target: T1, Ba/F3_EGFR del19/T790M/C797S cells; assay: Ba/F3_EGFR (del19-T790M-C797S) cell proliferation inhibition, CTG, method 1; assay type: cell-based; settings: 700 cells/well, 72 h, read-out: Ba/F3_EGFR (del19-T790M-C797S) cell proliferation inhibition (IC50 value) Method 1
Method: The cells were cultured in a 37° C., 5% CO2 incubator.
Cell plating and compound treatment: 1) Cells are routinely cultured until the cell saturation is 80%-90%, and when the number reaches the requirement, the cells are collected. 2) Resuspend in the corresponding fresh medium, take a small amount of cells to count, and prepare a cell suspension with a suitable density. 3) Inoculate the cell suspension into a 384-well plate at 700 cells/well, 30 μL per well. 4) Use Echo to add the compound to the corresponding cell well. The maximum starting concentration of the compound is 1-10 μM, 3 folds dilution, 8 concentrations.
CTG method detection: 1) Add 30 μL of CTG reagent (CelltiterGlo kit) to each well, and let it stand for 30 minutes at 37° C. and 5% CO2 in the dark. 2) Use Envision instrument to read the chemiluminescence signal value.
Data analysis: IC50 results are analyzed by GraphPad Prism 6 software. […] X: log value of compound concentration; Y: inhibition rate (% inhibition); inhibition rate (% inhibition)=(blank control well reading−compound well reading)/(blank control well reading−positive control reading)×100.

[3] = Pharmacokinetic study in rats after intragastrical administration; assay type: in vivo; settings: male, rat, plasma, po, SD rats, 3 mg/kg
Method: Example 55: Pharmacokinetic Study in Rats
Instruments: XEVO TQ-S LC/MS instrument produced by Waters. All measurement data is collected and processed by Masslynx V4.1 software, and the data is calculated and processed by Microsoft Excel. Using WinNonLin 8.0 software, the statistical moment method was used to calculate the pharmacokinetic parameters. Mainly include kinetic parameters Tmax, T1/2, Cmax, AUClast etc. […] Injection volume: 5 μL.
Animals: 3 male SD rats with a weight range of 200-220 g. After purchase, they will be kept in the laboratory of the Experimental Animal Center for 2 days and then used. They will be fasted for 12 hours predose and 4 hours after dosing. Drinking water is free during the test. After the rats were gavage, blood samples were taken according to the established time point.
Solvent: 0.5% Methylcellulose (aqueous solution containing 0.4% Tween 80 and 1% ethanol). Preparation of the solution for intragastrical administration: accurately weigh the compound, add it to the solvent, and ultrasonically at room temperature for 5 minutes to completely dissolve the drug, and prepare a 0.3 mg/ml medicinal solution.
Pharmaceutical samples: representative compounds of the structure shown in the patented formula (I) of the present invention, generally, multiple samples with similar structures (with a molecular weight difference of more than 2 units) are taken, accurately weighed, and administered together (cassette PK). In this way, multiple compounds can be screened at the same time and their oral absorption rates can be compared. A single administration was also used to study the pharmacokinetics of the drug sample in rats.
After intragastrical administration, blood was taken from the orbit at 0.25, 0.5, 1, 2, 4, 9, 12 and 24 hours, and placed in a plastic centrifuge tube pretreated with sodium heparin. After centrifugation, the supernatant plasma was used for LC-MS/MS analysis.
Accurately weigh the compounds to prepare different concentrations, perform quantitative analysis on mass spectrometry to establish a standard curve, and then test the concentration of the above-mentioned compound in the plasma to obtain the compound concentration at different time points. All measurement data are collected and processed by relevant software, and the statistical moment method is used to calculate the pharmacokinetic parameters (mainly including kinetic parameters Tmax, T1/2, Cmax, AUClast etc). The results are as follows:
Table 7: Pharmacokinetic Parameters of the Compounds after Intragastrical Administration in SD Rats

EGFR (T790M/L858R/C797S), sequence (P00533 25-1210 T790M/C797S/L858R): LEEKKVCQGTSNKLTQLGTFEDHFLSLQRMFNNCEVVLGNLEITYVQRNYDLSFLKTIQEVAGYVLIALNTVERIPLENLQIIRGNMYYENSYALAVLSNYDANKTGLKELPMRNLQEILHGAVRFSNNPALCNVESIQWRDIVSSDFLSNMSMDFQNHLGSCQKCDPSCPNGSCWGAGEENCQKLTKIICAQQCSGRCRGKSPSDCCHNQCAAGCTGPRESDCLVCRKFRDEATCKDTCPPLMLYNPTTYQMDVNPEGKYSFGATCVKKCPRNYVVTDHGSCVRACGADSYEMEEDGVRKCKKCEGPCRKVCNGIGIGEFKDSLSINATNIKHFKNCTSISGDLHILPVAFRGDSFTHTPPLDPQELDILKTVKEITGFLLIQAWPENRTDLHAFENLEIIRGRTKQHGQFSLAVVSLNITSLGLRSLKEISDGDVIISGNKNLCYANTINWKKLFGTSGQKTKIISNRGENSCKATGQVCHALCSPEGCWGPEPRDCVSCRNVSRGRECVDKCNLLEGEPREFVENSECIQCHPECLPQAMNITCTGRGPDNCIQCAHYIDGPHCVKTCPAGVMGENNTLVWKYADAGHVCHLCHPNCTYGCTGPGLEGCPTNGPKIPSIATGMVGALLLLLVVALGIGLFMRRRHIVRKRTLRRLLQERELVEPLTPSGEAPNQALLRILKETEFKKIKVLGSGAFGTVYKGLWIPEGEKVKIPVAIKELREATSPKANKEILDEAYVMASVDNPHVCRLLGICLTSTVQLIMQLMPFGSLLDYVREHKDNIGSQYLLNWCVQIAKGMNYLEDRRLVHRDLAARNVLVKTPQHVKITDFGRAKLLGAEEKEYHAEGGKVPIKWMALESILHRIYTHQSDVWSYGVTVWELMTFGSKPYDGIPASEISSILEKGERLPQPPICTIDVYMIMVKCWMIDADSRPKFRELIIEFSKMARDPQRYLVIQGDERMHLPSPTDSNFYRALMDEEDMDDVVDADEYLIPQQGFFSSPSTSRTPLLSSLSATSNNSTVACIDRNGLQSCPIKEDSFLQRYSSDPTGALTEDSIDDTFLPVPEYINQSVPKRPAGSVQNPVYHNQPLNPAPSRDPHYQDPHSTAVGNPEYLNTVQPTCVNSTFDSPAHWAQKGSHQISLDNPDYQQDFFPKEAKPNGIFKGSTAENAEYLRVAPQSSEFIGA
MAP4K1 (HPK1), sequence (Q92918 whole entry): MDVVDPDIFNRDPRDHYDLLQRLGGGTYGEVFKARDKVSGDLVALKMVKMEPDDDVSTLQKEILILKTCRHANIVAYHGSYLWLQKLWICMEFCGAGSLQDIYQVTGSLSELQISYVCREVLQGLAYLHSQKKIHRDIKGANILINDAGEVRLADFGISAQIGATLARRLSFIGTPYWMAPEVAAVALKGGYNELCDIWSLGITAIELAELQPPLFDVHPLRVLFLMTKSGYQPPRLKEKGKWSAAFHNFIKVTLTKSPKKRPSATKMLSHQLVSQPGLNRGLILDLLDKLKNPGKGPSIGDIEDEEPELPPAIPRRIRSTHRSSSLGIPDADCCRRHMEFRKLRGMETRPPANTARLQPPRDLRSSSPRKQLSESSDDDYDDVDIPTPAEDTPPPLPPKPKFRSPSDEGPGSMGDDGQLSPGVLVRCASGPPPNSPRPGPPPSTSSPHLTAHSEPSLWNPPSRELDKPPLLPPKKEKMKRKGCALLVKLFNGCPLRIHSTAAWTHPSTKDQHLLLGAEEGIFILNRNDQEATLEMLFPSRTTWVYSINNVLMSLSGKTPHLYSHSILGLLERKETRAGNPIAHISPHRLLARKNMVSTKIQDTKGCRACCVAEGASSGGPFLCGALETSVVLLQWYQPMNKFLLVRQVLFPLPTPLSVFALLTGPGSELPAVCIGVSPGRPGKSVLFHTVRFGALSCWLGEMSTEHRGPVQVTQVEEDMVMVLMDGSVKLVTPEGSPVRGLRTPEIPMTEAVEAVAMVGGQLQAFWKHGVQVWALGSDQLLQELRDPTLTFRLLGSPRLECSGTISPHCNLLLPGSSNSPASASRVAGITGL
T1 sequence (P00533 with tags, fused parts or gaps DEL746-750/T790M/C797S, form open): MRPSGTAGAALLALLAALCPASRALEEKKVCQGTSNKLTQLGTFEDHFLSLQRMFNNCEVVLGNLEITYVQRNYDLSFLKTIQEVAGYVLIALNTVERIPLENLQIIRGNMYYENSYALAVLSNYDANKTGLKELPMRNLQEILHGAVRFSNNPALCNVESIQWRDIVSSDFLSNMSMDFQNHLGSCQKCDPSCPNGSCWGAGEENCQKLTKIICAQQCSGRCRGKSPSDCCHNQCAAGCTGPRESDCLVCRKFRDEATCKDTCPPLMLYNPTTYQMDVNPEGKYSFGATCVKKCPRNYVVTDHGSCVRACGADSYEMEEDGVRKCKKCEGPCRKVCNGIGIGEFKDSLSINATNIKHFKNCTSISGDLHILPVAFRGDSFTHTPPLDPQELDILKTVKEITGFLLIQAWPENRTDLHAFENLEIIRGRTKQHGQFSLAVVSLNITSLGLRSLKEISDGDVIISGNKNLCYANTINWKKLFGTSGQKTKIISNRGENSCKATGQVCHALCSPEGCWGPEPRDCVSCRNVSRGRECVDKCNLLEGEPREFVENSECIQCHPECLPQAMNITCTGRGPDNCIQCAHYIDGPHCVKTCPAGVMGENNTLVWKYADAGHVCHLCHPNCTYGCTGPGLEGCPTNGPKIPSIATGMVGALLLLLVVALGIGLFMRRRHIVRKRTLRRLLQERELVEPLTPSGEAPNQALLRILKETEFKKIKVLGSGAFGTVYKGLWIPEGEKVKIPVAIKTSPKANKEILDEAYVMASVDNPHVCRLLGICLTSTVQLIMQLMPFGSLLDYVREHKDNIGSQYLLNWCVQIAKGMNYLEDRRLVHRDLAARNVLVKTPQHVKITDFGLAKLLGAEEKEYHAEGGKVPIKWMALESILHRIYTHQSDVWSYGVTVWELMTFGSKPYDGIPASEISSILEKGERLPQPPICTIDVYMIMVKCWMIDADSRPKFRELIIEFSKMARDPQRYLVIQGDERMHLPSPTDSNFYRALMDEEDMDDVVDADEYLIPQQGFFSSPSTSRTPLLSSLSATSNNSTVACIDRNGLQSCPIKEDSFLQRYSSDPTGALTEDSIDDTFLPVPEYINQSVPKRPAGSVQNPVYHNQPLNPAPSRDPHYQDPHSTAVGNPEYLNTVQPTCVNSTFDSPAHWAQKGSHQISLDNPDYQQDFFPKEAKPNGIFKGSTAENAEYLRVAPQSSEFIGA
ALK, sequence (Q9UM73 19-1620): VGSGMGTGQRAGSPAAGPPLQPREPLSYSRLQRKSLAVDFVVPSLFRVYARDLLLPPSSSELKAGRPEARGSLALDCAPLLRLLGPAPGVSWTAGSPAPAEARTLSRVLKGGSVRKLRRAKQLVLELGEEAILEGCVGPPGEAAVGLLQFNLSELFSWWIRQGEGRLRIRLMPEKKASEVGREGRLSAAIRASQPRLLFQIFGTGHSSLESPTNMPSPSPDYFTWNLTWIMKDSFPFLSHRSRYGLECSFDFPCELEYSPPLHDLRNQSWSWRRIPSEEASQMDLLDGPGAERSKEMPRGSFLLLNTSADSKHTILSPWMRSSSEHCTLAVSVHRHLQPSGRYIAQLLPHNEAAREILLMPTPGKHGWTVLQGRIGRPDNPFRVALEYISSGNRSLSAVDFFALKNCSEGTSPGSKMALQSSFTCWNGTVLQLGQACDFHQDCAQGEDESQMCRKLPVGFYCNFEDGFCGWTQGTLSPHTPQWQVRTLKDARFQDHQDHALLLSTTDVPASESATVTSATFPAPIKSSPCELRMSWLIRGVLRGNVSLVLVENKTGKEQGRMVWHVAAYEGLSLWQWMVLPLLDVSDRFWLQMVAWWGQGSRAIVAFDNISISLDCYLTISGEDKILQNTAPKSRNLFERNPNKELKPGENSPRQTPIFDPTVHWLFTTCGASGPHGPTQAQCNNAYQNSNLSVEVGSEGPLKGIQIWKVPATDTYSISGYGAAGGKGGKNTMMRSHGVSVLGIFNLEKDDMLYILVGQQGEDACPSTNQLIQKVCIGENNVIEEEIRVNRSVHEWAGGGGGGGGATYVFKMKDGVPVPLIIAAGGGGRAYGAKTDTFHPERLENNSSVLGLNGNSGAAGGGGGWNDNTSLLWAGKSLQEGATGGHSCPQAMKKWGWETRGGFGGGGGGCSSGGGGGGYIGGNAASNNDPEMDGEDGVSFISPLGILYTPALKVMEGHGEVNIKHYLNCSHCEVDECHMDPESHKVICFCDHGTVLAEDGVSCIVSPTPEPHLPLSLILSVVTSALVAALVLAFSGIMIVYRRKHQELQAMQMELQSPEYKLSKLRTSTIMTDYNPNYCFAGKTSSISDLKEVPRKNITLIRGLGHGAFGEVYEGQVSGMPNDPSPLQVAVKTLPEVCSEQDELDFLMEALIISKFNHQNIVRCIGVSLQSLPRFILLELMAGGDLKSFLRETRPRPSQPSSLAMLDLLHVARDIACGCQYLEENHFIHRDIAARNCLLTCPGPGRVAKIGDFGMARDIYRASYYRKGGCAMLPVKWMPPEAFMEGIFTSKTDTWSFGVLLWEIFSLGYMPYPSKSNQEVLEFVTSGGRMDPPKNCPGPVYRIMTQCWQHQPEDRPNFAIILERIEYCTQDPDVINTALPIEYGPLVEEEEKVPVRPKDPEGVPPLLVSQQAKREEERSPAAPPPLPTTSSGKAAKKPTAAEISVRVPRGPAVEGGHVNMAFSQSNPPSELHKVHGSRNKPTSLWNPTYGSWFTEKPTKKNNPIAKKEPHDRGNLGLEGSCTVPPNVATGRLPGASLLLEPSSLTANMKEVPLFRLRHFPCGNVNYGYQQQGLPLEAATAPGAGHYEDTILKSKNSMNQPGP

| IC50 (EGFR (T790M/L858R/C797S)) [nM] | IC50 (MAP4K1 (HPK1)) [nM] | GI50 [1] [nM] | IC50 (EGFR (C797S)) [nM] | IC50 (ALK) [nM] | GI50 [2] [nM] | Cmax [3] [ng/mL] | Tmax [3] [h] | half-life [3] [min] | AUC(0-t) ([3]; read-out: AUC0-24 h) [ng·h/mL] | Compound |
| --- | --- | --- | --- | --- | --- | --- | --- | --- | --- | --- |
| < 3 | ≤ 1 | < 20 |  |  |  |  |  |  |  | Cc1cc(Nc2ncc(Cl)c(Nc3ccccc3P(C)(C)=O)n2)cc2c1N1CCN(C3CN(C)C3)C[C@H]1CO2 [Compound 34S] |
| 15 to 100 | 1 to 10 |  | 50 to 250 | 50 to 250 |  |  |  |  |  | CP(C)(=O)c1ccccc1Nc1nc(Nc2ccc3c(c2)OC[C@H]2CN(c4ccccc4)CCN32)ncc1Cl [Compound 16R] |
| < 3 | ≤ 1 |  |  |  | > 200 |  |  |  |  | CP(C)(=O)c1ccccc1Nc1nc(Nc2ccc3c(c2)OC[C@H]2CN(C4CCNCC4)CCN32)ncc1Cl [Compound 21R] |
| < 3 | ≤ 1 |  |  |  | 20 to 100 | 352 | 3.33 | 133 | 3260 | CC(=O)N1CCC(N2CCN3c4c(C)cc(Nc5ncc(Cl)c(Nc6ccccc6P(C)(C)=O)n5)cc4OC[C@@H]3C2)CC1 [Compound 32S] |

More lines, now with the values behind:

| Compound | IC50 (EGFR (T790M/L858R/C797S)) [nM] | IC50 (MAP4K1 (HPK1)) [nM] | GI50 [1] [nM] | IC50 (EGFR (C797S)) [nM] | IC50 (ALK) [nM] | GI50 [2] [nM] | Cmax [3] [ng/mL] | Tmax [3] [h] | half-life [3] [min] | AUC(0-t) ([3]; read-out: AUC0-24 h) [ng·h/mL] |
| --- | --- | --- | --- | --- | --- | --- | --- | --- | --- | --- |
| C=CC(=O)N1CCC(N2CCN3c4ccc(Nc5ncc(Cl)c(Nc6ccccc6P(C)(C)=O)n5)cc4OC[C@H]3C2)CC1 [Compound 22R] | 3 to 15 | ≤ 1 |  |  |  | < 20 |  |  |  |  |
| C=CC(=O)Nc1cc(Nc2ncc(Cl)c(Nc3ccccc3P(C)(C)=O)n2)cc2c1N1CCN(C)C[C@@H]1CO2 [Compound 29R] | 3 to 15 | ≤ 1 |  |  |  | 20 to 100 |  |  |  |  |
| CP(C)(=O)c1ccccc1Nc1nc(Nc2ccc3c(c2)OC[C@H]2COCCN32)ncc1Cl [Compound 12R] |  | ≤ 1 |  | 50 to 250 | 50 to 250 | 20 to 100 |  |  |  |  |
